Data taken from patent US9617256B2 (priority 2007, dated 2017).
Converted amounts (≈) assume the structure as drawn.

Assays:
[1] = test system: APAE006 (strain of P. aeruginosa in which all efflux pumps are inactivated); assay: microbe, parasite or virus in culture; format: cell-based; conditions: Pseudomonas aeruginosa, read-out: MIC APAE006, P. aeruginosa, all efflux pumps inactivated
Summary of the method: (§1)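 Inocula prepared from 0.5 McFarland suspensions (final 3×10^5–7×10^5 CFU/mL) were added to 2-fold drug dilution series in cation-adjusted Mueller-Hinton broth. Plates stood 18-24 hours at 35° C. under ambient air.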

AECO001 HSA AGP = assay: MIC broth microdilution, AECO001 HSA AGP; format: cell-based, E. coli; conditions: Escherichia coli
Description: Bacterial isolates were cultivated from −70° C. frozen stocks by overnight passages at 35° C. in ambient air on Mueller-Hinton agar (Beckton Dickinson, Franklin Lakes, N.J.). Clinical isolates tested were obtained from various geographically diverse hospitals in the US and abroad (Focus Diagnostics, Herndon, Va. and JMI, North Liberty, Iowa). Quality control strains were from the American Type Culture Collection (ATCC; Rockville, Md.). Additional primary panel strains were generated using standard molecular biology techniques.
Minimum Inhibitory Concentrations (MICs) were determined by the broth microdilution method in accordance with the Clinical and Laboratory Standards Institute (CLSI) guidelines. In brief, organism suspensions were adjusted to a 0.5 McFarland standard to yield a final inoculum between 3×10^5 and 7×10^5 colony-forming units (CFU)/mL. Drug dilutions and inocula were made in sterile, cation adjusted Mueller-Hinton Broth (Beckton Dickinson). An inoculum volume of 100 μL was added to wells containing 100 μL of broth with 2-fold serial dilutions of drug. All inoculated microdilution trays were incubated in ambient air at 35° C. for 18-24 hours. […] Performance of the assay was monitored by the use of laboratory quality-control strains and levofloxacin, a compound with a defined MIC spectrum, in accordance with CLSI guidelines.
*AECO001 is ATCC25922, AECO063 is ATCC25922 bearing an acrAB mutation, APAE001 is ATCC27853, APAE006 is a strain of P. aeruginosa in which all efflux pumps are inactivated, APAE006+PMBN indicates MICs with the indicated strain in the presence of 8 micrograms per milliliter of polymyxin B nonapeptide, AABA1060 is a clinical isolate of Acinetobacter baumannii, ASAU001 is a laboratory strain of S. aureus (ATCC29213).

APAE001 (ATCC27853) = assay: MIC broth microdilution, APAE001; format: cell-based, P. aeruginosa; conditions: Pseudomonas aeruginosa, ATCC27853, read-out: MIC APAE001, APAE001 is ATCC27853
Summary of the method: (§2)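 CLSI-guided microdilution: bacteria passaged overnight at 35° C. on Mueller-Hinton agar, tested in cation-adjusted broth at a final 3×10^5–7×10^5 CFU/mL across 2-fold drug dilutions, read after 18-24 h at 35° C.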

[2] = test system: APAE006 in the presence of 8 micrograms per milliliter of polymyxin B nonapeptide; format: cell-based, P. aeruginosa; conditions: in the presence of 8 micrograms per milliliter of polymyxin B nonapeptide
Summary of the method: as §1

[3] = test system: AECO063 (ATCC25922 bearing an acrAB mutation); assay: microbe, parasite or virus in culture; format: cell-based, E. coli; conditions: Escherichia coli, ATCC25922, read-out: MIC AECO063
Summary of the method: as §2

[4] = test system: AABA1060 (clinical isolate of Acinetobacter baumannii); assay: MIC broth microdilution, AABA1060; format: cell-based; conditions: Acinetobacter baumannii, read-out: MIC AABA1060
Summary of the method: as §2

AECO001 (ATCC25922) = assay: MIC broth microdilution, AECO001; format: cell-based, E. coli; conditions: Escherichia coli, ATCC25922, read-out: MIC AECO001
Summary of the method: as §2

[5] = test system: ASAU001 (laboratory strain of S. aureus, ATCC29213); assay: MIC broth microdilution, ASAU001; format: cell-based; conditions: Staphylococcus aureus, ATCC29213, read-out: MIC ASAU001
Summary of the method: as §2

SMILES	MIC [1]	MIC (AECO001 HSA AGP)	MIC (APAE001 (ATCC27853))	MIC APAE006 + PMBN [2]	MIC [3]	MIC [4]	MIC (AECO001 (ATCC25922))	MIC [5]
C[C@@H](O)[C@H](NC(=O)c1ccc(N2CCC(c3ccc(CN4CCOCC4)cc3)CC2)cc1)C(=O)NO [Example 42-7, N-((1S,2R)-2-Hydroxy-1-hydroxycarbamoyl-propyl)-4-[4-(4-morpholin-4-ylmethyl-phenyl)-piperidin-1-yl]-benzamide]	< 2 µg/mL	16 to 64 µg/mL (≈ 32.2 to 129 µM)	16 to 64 µg/mL (≈ 32.2 to 129 µM)	A (MIC's of 2.0 μg/mL or less = A)	16 to 64 µg/mL (≈ 32.2 to 129 µM)	16 to 64 µg/mL (≈ 32.2 to 129 µM)	16 to 64 µg/mL (≈ 32.2 to 129 µM)	> 64 µg/mL
C[C@@H](O)[C@H](NC(=O)c1ccc(N2CCN(c3ccc(CN4CCOCC4)cc3)CC2)cc1)C(=O)NO [Example 43-7, N-((1S,2R)-2-Hydroxy-1-hydroxycarbamoyl-propyl)-4-[4-(4-morpholin-4-ylmethyl-phenyl)-piperazin-1-yl]-benzamide]	< 2 µg/mL	> 64 µg/mL	16 to 64 µg/mL (≈ 32.2 to 129 µM)	A (MIC's of 2.0 μg/mL or less = A)	16 to 64 µg/mL (≈ 32.2 to 129 µM)	> 64 µg/mL	> 64 µg/mL	> 64 µg/mL
CC(C)C(C(=O)NO)C(=O)Nc1ccc(C#Cc2ccc(CN3CCOCC3)cc2)cc1 (stereo not shown) [Example 60-5, N-Hydroxy-2-isopropyl-N′-[4-(4-morpholin-4-ylmethyl-phenylethynyl)-phenyl]-malonamide]	16 to 64 µg/mL (≈ 36.7 to 147 µM)	> 64 µg/mL	> 64 µg/mL	B (MIC's of greater than 2.0 μg/mL to 16.0 μg/mL = B)	16 to 64 µg/mL (≈ 36.7 to 147 µM)	> 64 µg/mL	16 to 64 µg/mL (≈ 36.7 to 147 µM)	> 64 µg/mL
O=C(NC(C(=O)NO)C1CCNC1)c1ccc(C#Cc2ccc(CN3CCOCC3)cc2)cc1 (stereo not shown) [Example 64-7, N-(hydroxycarbamoyl-pyrrolidin-3-yl-methyl)-4-(4-morpholin-4-ylmethyl-phenylethynyl)-benzamide]	< 2 µg/mL	16 to 64 µg/mL (≈ 34.6 to 138 µM)	2 to 16 µg/mL (≈ 4.32 to 34.6 µM)	A (MIC's of 2.0 μg/mL or less = A)	< 2 µg/mL	16 to 64 µg/mL (≈ 34.6 to 138 µM)	2 to 16 µg/mL (≈ 4.32 to 34.6 µM)	> 64 µg/mL
O=C(N[C@H](C(=O)NO)C1CCNCC1)c1ccc(C#Cc2ccc(CN3CCOCC3)cc2)cc1 [Example 65-6, N—((S)-hydroxycarbamoyl-piperidin-4-yl-methyl)-4-(4-morpholin-4-ylmethyl-phenylethynyl)-benzamide]	2 to 16 µg/mL (≈ 4.2 to 33.6 µM)	> 64 µg/mL	16 to 64 µg/mL (≈ 33.6 to 134 µM)	A (MIC's of 2.0 μg/mL or less = A)	2 to 16 µg/mL (≈ 4.2 to 33.6 µM)	16 to 64 µg/mL (≈ 33.6 to 134 µM)	16 to 64 µg/mL (≈ 33.6 to 134 µM)	> 64 µg/mL
O=C(N[C@H](C(=O)NO)c1ccccc1)c1ccc(C#Cc2ccc(CN3CCOCC3)cc2)cc1 [Example 66-5, N—((S)-hydroxycarbamoyl-phenyl-methyl)-4-(4-morpholin-4-ylmethyl-phenylethynyl)-benzamide]	< 2 µg/mL	2 to 16 µg/mL (≈ 4.26 to 34.1 µM)	2 to 16 µg/mL (≈ 4.26 to 34.1 µM)	A (MIC's of 2.0 μg/mL or less = A)	< 2 µg/mL	2 to 16 µg/mL (≈ 4.26 to 34.1 µM)	< 2 µg/mL	> 64 µg/mL
O=C(N[C@H](C(=O)NO)C1CCCC1)c1ccc(C#Cc2ccc(CN3CCOCC3)cc2)cc1 [Example 66-6]	< 2 µg/mL	2 to 16 µg/mL (≈ 4.33 to 34.7 µM)	16 to 64 µg/mL (≈ 34.7 to 139 µM)	A (MIC's of 2.0 μg/mL or less = A)	< 2 µg/mL	16 to 64 µg/mL (≈ 34.7 to 139 µM)	< 2 µg/mL	> 64 µg/mL
O=C(NC(C(=O)NO)C1CCOCC1)c1ccc(C#Cc2ccc(CN3CCOCC3)cc2)cc1 (stereo not shown) [Example 67-5, N-[hydroxycarbamoyl-(tetrahydro-pyran-4-yl)-methyl]-4-(4-morpholin-4-ylmethyl-phenylethynyl)-benzamide]	< 2 µg/mL	2 to 16 µg/mL (≈ 4.19 to 33.5 µM)	2 to 16 µg/mL (≈ 4.19 to 33.5 µM)	A (MIC's of 2.0 μg/mL or less = A)	< 2 µg/mL	16 to 64 µg/mL (≈ 33.5 to 134 µM)	< 2 µg/mL	> 64 µg/mL
O=C(N[C@H](C(=O)NO)c1cccs1)c1ccc(C#Cc2ccc(CN3CCOCC3)cc2)cc1 [Example 67-7]	< 2 µg/mL	2 to 16 µg/mL (≈ 4.21 to 33.6 µM)	2 to 16 µg/mL (≈ 4.21 to 33.6 µM)	A (MIC's of 2.0 μg/mL or less = A)	< 2 µg/mL	2 to 16 µg/mL (≈ 4.21 to 33.6 µM)	< 2 µg/mL	> 64 µg/mL
O=C(N[C@H](C(=O)NO)c1ccsc1)c1ccc(C#Cc2ccc(CN3CCOCC3)cc2)cc1 [Example 67-8]	< 2 µg/mL	2 to 16 µg/mL (≈ 4.21 to 33.6 µM)	2 to 16 µg/mL (≈ 4.21 to 33.6 µM)	A (MIC's of 2.0 μg/mL or less = A)	< 2 µg/mL	2 to 16 µg/mL (≈ 4.21 to 33.6 µM)	< 2 µg/mL	> 64 µg/mL
O=C(N[C@H](C(=O)NO)C1CCS(=O)(=O)CC1)c1ccc(C#Cc2ccc(CN3CCOCC3)cc2)cc1 [Example 67-9]	< 2 µg/mL	16 to 64 µg/mL (≈ 30.4 to 122 µM)	16 to 64 µg/mL (≈ 30.4 to 122 µM)	A (MIC's of 2.0 μg/mL or less = A)	< 2 µg/mL	> 64 µg/mL	2 to 16 µg/mL (≈ 3.8 to 30.4 µM)	> 64 µg/mL
O=C(N[C@H](C(=O)NO)C1CC1)c1ccc(C#Cc2ccc(CN3CCOCC3)cc2)cc1 [Example 68-6, N—((S)-cyclopropyl-hydroxycarbamoyl-methyl)-4-(4-morpholin-4-ylmethyl-phenylethynyl)-benzamide]	< 2 µg/mL	2 to 16 µg/mL (≈ 4.61 to 36.9 µM)	2 to 16 µg/mL (≈ 4.61 to 36.9 µM)	A (MIC's of 2.0 μg/mL or less = A)	< 2 µg/mL	16 to 64 µg/mL (≈ 36.9 to 148 µM)	< 2 µg/mL	> 64 µg/mL
NC[C@H](NC(=O)c1ccc(C#CC#Cc2ccc(CO)cc2)cc1)C(=O)NO [Example 82-2]	< 2 µg/mL	16 to 64 µg/mL (≈ 42.4 to 170 µM)	< 2 µg/mL	A (MIC's of 2.0 μg/mL or less = A)	< 2 µg/mL	16 to 64 µg/mL (≈ 42.4 to 170 µM)	< 2 µg/mL	16 to 64 µg/mL (≈ 42.4 to 170 µM)
C[C@@H](N)[C@H](NC(=O)c1ccc(C#CC#Cc2ccc(CO)cc2)cc1)C(=O)NO [Example 82-3]	< 2 µg/mL	16 to 64 µg/mL (≈ 40.9 to 164 µM)	< 2 µg/mL	A (MIC's of 2.0 μg/mL or less = A)	< 2 µg/mL	2 to 16 µg/mL (≈ 5.11 to 40.9 µM)	< 2 µg/mL	16 to 64 µg/mL (≈ 40.9 to 164 µM)
